System: Herpes simplex II virus
Assay: Back titration plaque assay: PFU counts at stated amounts of compound under test and arginine
Format: cell-based, Herpes simplex II virus (BSC cells)
Description: The following experiments were conducted by back titration: Herpes simplex II virus from laboratory stocks was used. BSC cells were grown to confluence in Eagles medium with 15% fetal calf serum, 150 units per milliliter of penicillin and 100 micrograms per milliliter of streptomycin. The cultures were inoculated with 500 PFU of HS II. The virons were allowed to absorb for one hour at 25° C. The tissue cultures were then washed three times with sterile PBS to remove excess media and non-absorbed virons. The cells were then incubated at 37° C. until four-plus cytopathic effects were observed. The cells were then disrupted by slow freeze-thaw two times. The suspension was then clarified by slow speed centrifugation at 4° C. The supemanant suspension was then added to confluent BSC cultures. After one hour absorption, the cells were washed with PBS twice. The cells were overlaid in defined reagent (in triplicate) Eagles media in noble agar. The cells were then incubated at 37° C. until the plaques were easily counted, usually 40 t 72 hours. the cells were then washed two times with PBS and then fixed with 10% H2CO and a 2% sodium acetate. The cells were then stained in 0.1% crystal violet in ethanol. In the tables which follow the concentration of the compound to be tested, in micrograms per milliliter, is listed across the top of the table and the concentration of arginine in micrograms per milliliter is listed down the left side of the table, the count of plaque-forming units being shown in the matrix.

[1] = compound 10 μg/ml, arginine 0 μg/ml
[2] = compound 10 μg/ml, arginine 2.5 μg/ml
[3] = compound 10 μg/ml, arginine 5.0 μg/ml
[4] = compound 10 μg/ml, arginine 7.5 μg/ml
[5] = compound 10 μg/ml, arginine 10 μg/ml
[6] = compound 10 μg/ml, arginine 15 μg/ml
[7] = compound 10 μg/ml, arginine 20 μg/ml
[8] = compound 10 μg/ml, arginine 25 μg/ml
[9] = compound 25 μg/ml, arginine 0 μg/ml
[10] = compound 25 μg/ml, arginine 2.5 μg/ml
[11] = compound 25 μg/ml, arginine 5.0 μg/ml
[12] = compound 25 μg/ml, arginine 7.5 μg/ml
[13] = compound 25 μg/ml, arginine 10 μg/ml
[14] = compound 25 μg/ml, arginine 15 μg/ml
[15] = compound 25 μg/ml, arginine 20 μg/ml
[16] = compound 25 μg/ml, arginine 25 μg/ml
[17] = compound 50 μg/ml, arginine 0 μg/ml
[18] = compound 50 μg/ml, arginine 2.5 μg/ml
[19] = compound 50 μg/ml, arginine 5.0 μg/ml
[20] = compound 50 μg/ml, arginine 7.5 μg/ml
[21] = compound 50 μg/ml, arginine 10 μg/ml
[22] = compound 50 μg/ml, arginine 15 μg/ml
[23] = compound 50 μg/ml, arginine 20 μg/ml
[24] = compound 50 μg/ml, arginine 25 μg/ml
[25] = compound 100 μg/ml, arginine 0 μg/ml
[26] = compound 100 μg/ml, arginine 2.5 μg/ml
[27] = compound 100 μg/ml, arginine 5.0 μg/ml
[28] = compound 100 μg/ml, arginine 7.5 μg/ml
[29] = compound 100 μg/ml, arginine 10 μg/ml
[30] = compound 100 μg/ml, arginine 15 μg/ml
[31] = compound 100 μg/ml, arginine 20 μg/ml
[32] = compound 100 μg/ml, arginine 25 μg/ml
[33] = compound 200 μg/ml, arginine 0 μg/ml
[34] = compound 200 μg/ml, arginine 2.5 μg/ml
[35] = compound 200 μg/ml, arginine 5.0 μg/ml
[36] = compound 200 μg/ml, arginine 7.5 μg/ml
[37] = compound 200 μg/ml, arginine 10 μg/ml
[38] = compound 200 μg/ml, arginine 15 μg/ml
[39] = compound 200 μg/ml, arginine 20 μg/ml
[40] = compound 200 μg/ml, arginine 25 μg/ml
[41] = compound 300 μg/ml, arginine 0 μg/ml
[42] = compound 300 μg/ml, arginine 2.5 μg/ml
[43] = compound 300 μg/ml, arginine 5.0 μg/ml
[44] = compound 300 μg/ml, arginine 7.5 μg/ml
[45] = compound 300 μg/ml, arginine 10 μg/ml
[46] = compound 300 μg/ml, arginine 15 μg/ml
[47] = compound 300 μg/ml, arginine 20 μg/ml
[48] = compound 300 μg/ml, arginine 25 μg/ml
[49] = compound 400 μg/ml, arginine 0 μg/ml
[50] = compound 400 μg/ml, arginine 2.5 μg/ml
[51] = compound 400 μg/ml, arginine 5.0 μg/ml
[52] = compound 400 μg/ml, arginine 7.5 μg/ml
[53] = compound 400 μg/ml, arginine 10 μg/ml
[54] = compound 400 μg/ml, arginine 15 μg/ml
[55] = compound 400 μg/ml, arginine 20 μg/ml
[56] = compound 400 μg/ml, arginine 25 μg/ml
[57] = compound 500 μg/ml, arginine 0 μg/ml
[58] = compound 500 μg/ml, arginine 2.5 μg/ml
[59] = compound 500 μg/ml, arginine 5.0 μg/ml
[60] = compound 500 μg/ml, arginine 7.5 μg/ml
[61] = compound 500 μg/ml, arginine 10 μg/ml
[62] = compound 500 μg/ml, arginine 15 μg/ml
[63] = compound 500 μg/ml, arginine 20 μg/ml
[64] = compound 500 μg/ml, arginine 25 μg/ml

NCCCCCC(N)C(=O)O (centres unmarked) [drawing 17]
P.F.U. Count [1]: 0
P.F.U. Count [2]: 0
P.F.U. Count [3]: 0
P.F.U. Count [4]: 0
P.F.U. Count [5]: 290
P.F.U. Count [6]: 799
P.F.U. Count [7]: 2.8 × 10^5
P.F.U. Count [8]: 2.8 × 10^5
P.F.U. Count [9]: 0
P.F.U. Count [10]: 0
P.F.U. Count [11]: 0
P.F.U. Count [12]: 0
P.F.U. Count [13]: 3.7 × 10^3
P.F.U. Count [14]: 4.2 × 10^3
P.F.U. Count [15]: 2.6 × 10^5
P.F.U. Count [16]: 4 × 10^5
P.F.U. Count [17]: 0
P.F.U. Count [18]: 0
P.F.U. Count [19]: 0
P.F.U. Count [20]: 0
P.F.U. Count [21]: 79
P.F.U. Count [22]: 276
P.F.U. Count [23]: 6.6 × 10^4
P.F.U. Count [24]: 3.6 × 10^4
P.F.U. Count [25]: 0
P.F.U. Count [26]: 0
P.F.U. Count [27]: 0
P.F.U. Count [28]: 0
P.F.U. Count [29]: 0
P.F.U. Count [30]: 0
P.F.U. Count [31]: 3.2 × 10^3
P.F.U. Count [32]: 6.6 × 10^3
P.F.U. Count [33]: 0
P.F.U. Count [34]: 0
P.F.U. Count [35]: 0
P.F.U. Count [36]: 0
P.F.U. Count [37]: 0
P.F.U. Count [38]: 0
P.F.U. Count [39]: 68
P.F.U. Count [40]: 654
P.F.U. Count [41]: 0
P.F.U. Count [42]: 0
P.F.U. Count [43]: 0
P.F.U. Count [44]: 0
P.F.U. Count [45]: 0
P.F.U. Count [46]: 0
P.F.U. Count [47]: 0
P.F.U. Count [48]: 0
P.F.U. Count [49]: 0
P.F.U. Count [50]: 0
P.F.U. Count [51]: 0
P.F.U. Count [52]: 0
P.F.U. Count [53]: 0
P.F.U. Count [54]: 0
P.F.U. Count [55]: 0
P.F.U. Count [56]: 0
P.F.U. Count [57]: 0
P.F.U. Count [58]: 0
P.F.U. Count [59]: 0
P.F.U. Count [60]: 0
P.F.U. Count [61]: 0
P.F.U. Count [62]: 0
P.F.U. Count [63]: 0
P.F.U. Count [64]: 0

CC(N)CCCCC(N)C(=O)O (centres unmarked) [drawing 18]
P.F.U. Count [1]: 0
P.F.U. Count [2]: 0
P.F.U. Count [3]: 0
P.F.U. Count [4]: 0
P.F.U. Count [5]: 610
P.F.U. Count [6]: 46
P.F.U. Count [7]: 2.1 × 10^5
P.F.U. Count [8]: 2.8 × 10^5
P.F.U. Count [9]: 0
P.F.U. Count [10]: 0
P.F.U. Count [11]: 0
P.F.U. Count [12]: 0
P.F.U. Count [13]: 3.7 × 10^3
P.F.U. Count [14]: 4.2 × 10^3
P.F.U. Count [15]: 2.0 × 10^5
P.F.U. Count [16]: 2.1 × 10^5
P.F.U. Count [17]: 0
P.F.U. Count [18]: 0
P.F.U. Count [19]: 0
P.F.U. Count [20]: 0
P.F.U. Count [21]: 79
P.F.U. Count [22]: 276
P.F.U. Count [23]: 1.6 × 10^4
P.F.U. Count [24]: 1.1 × 10^4
P.F.U. Count [25]: 0
P.F.U. Count [26]: 0
P.F.U. Count [27]: 0
P.F.U. Count [28]: 0
P.F.U. Count [29]: 0
P.F.U. Count [30]: 0
P.F.U. Count [31]: 1.0 × 10^3
P.F.U. Count [32]: 1.6 × 10^3
P.F.U. Count [33]: 0
P.F.U. Count [34]: 0
P.F.U. Count [35]: 0
P.F.U. Count [36]: 0
P.F.U. Count [37]: 0
P.F.U. Count [38]: 0
P.F.U. Count [39]: 760
P.F.U. Count [40]: 1.7 × 10^3
P.F.U. Count [41]: 0
P.F.U. Count [42]: 0
P.F.U. Count [43]: 0
P.F.U. Count [44]: 0
P.F.U. Count [45]: 0
P.F.U. Count [46]: 0
P.F.U. Count [47]: 163
P.F.U. Count [48]: 1.0 × 10^3
P.F.U. Count [49]: 0
P.F.U. Count [50]: 0
P.F.U. Count [51]: 0
P.F.U. Count [52]: 0
P.F.U. Count [53]: 0
P.F.U. Count [54]: 179
P.F.U. Count [55]: 310
P.F.U. Count [56]: 140
P.F.U. Count [57]: 0
P.F.U. Count [58]: 0
P.F.U. Count [59]: 0
P.F.U. Count [60]: 0
P.F.U. Count [61]: 0
P.F.U. Count [62]: 0
P.F.U. Count [63]: 0
P.F.U. Count [64]: 0

— US20030153618A1, “Treatment and prevention of herpes simplex infections” (priority 1999, published 2003)
